Assay results: US20030096433A1, “Homogeneous fluorescence assay” (Evotec Analytical Systems GmbH, priority 1999, published 2003)
Where “and” joins values, the source holds several entries; their conditions need not be identical. Equal values may be shown once. Read-outs that look alike come from different tables or passages of the source. Values belong to the compound of their own block, whether it stands above or below them.

What was measured:
p60src kinase = target: T1, p60src kinase (Homo sapiens, UniProt P12931); experiment: Protein tyrosine kinase pharmaceutical screening assay; assay type: biochemical
T1 construct: purchased Upstate Biotechnology
Text: At first p60src (Upstate Biotechnology) phosphorylates the P2 substrate. The phos-phorylated and biotinylated P1 peptide is depicted as string of beads with attached “P” (phosphate) and triangle (biotin). The phosphorylated P2 competes with P1 for binding to the TRITC-labeled anti-phosphotyrosine antibody. In absence of enzyme activity all fluorescent antibodies are bound to carrier particles via P1 which means maximal binding to carrier particles and correspondingly minimum particle number. The phosphorylated P2 catches the fluorescent antibody preventing the formation of complexes. In that case no binding to carrier particles occurs and maximal particle number will be measured. Potential inhibitors are incubated with the enzyme before the enzyme reaction is started by adding a mixture of P2 and ATP.

anti-estradiol antibody = experiment: 17-β-Estradiol competitive carrier particle assay (FCS); assay type: binding; details: for IC50: competition with TAMRA-estradiol, carrier particles 160 nm, FCS
Text: The anti-estradiol-antibody was kindly provided by Dr. Schumacher (Institute of Fertility Research, Hamburg). 17-β-estradiol was obtained from Sigma. The protein A coated carrier particles (Protein A Ferrofluid™) with a mean diameter of 160 nm were from Immunicon. The optical set-up was the same as described in Example 1. […] Data evaluation and fitting procedures were the same as described in Example 1. The concentration of the conjugate (TAMRA-estradiol), the corresponding antibody and the carrier particles were kept constant in a specific series of experiments. […] The competitive assays were carried out as follows: The TAMRA conjugate of estradiol was mixed with the corresponding unlabelled molecules. […] Some experiments with JA190-estradiol conjugates were carried out in E-NAP buffer (200 mM sodium acetate, 150 mM NaCl, 0.2% BSA, pH 4). […] All estradiol conjugates, except for the BODIPY™-derivative, bound to an anti-estradiol antibody with similar affinity. […] All other conjugate-antibody interactions remained strong. […] TAMRA-estradiol was used for further assay evaluation.

[1] = target: anti-theophylline antibody; details: read-out: K2 (KD value for the competitor)
[2] = test system: anti-estradiol antibodies; experiment: Estradiol competition assay (fluorescence intensity distribution analysis); assay type: binding, Rabbit; details: 5 nM estradiol-Tamra, 0.18 nM carrier particles, 10 x 2 s

- Km (p60src kinase; turn over velocity versus ATP concentration, FIG. 13, read-out: Michaelis constant KM): 16.2 ± 4 µM
Structure (SMILES): Nc1ncnc2c1ncn2[C@@H]1O[C@H](COP(=O)(O)OP(=O)(O)OP(=O)(O)O)[C@@H](O)[C@H]1O [ATP]

Structure (SMILES): CN(C)c1ccc2c(-c3ccc(C(=O)NCCOCCOCCNC(=O)CON=C4CC5C(CCC6(C)C(O)CCC56)c5ccc(O)cc54)cc3C(=O)[O-])c3ccc(N(C)C)cc3[o+]c2c1 (centres unmarked) [TAMRA-estradiol]
- Kd (anti-estradiol antibody; simultaneous fit of gB and binding degree to equations 1 and 8, read-out: K1 (KD value for the conjugate)): 1.4 pM

- Kd ([1]; fit with K1 fixed at 10^−11 M): 0.083 nM
- Kd ([1]; simultaneous fit of gB and binding degree to equations 1 and 8, K1 variable): 0.0025 nM
Structure (SMILES): Cn1c(=O)c2[nH]cnc2n(C)c1=O [theophylline, Theophylline]

- IC50 ([2]; FIG. 8A, read-out: IC50 from I1 (intensity of free conjugate), hyperbolic fit): 11.9 ± 2.4 nM
- IC50 ([2]; FIG. 8B, read-out: IC50 from I2 (intensity of carrier particles with bound conjugate), hyperbolic fit): 13.3 nM and 13.2 nM
- IC50 ([2]; FIG. 8C, read-out: IC50 from I2/(I1+I2), hyperbolic fit): 8.8 ± 1.1 nM
- IC50 (anti-estradiol antibody; read-out: IC50 using the binding degree): 20 nM
- IC50 (anti-estradiol antibody; read-out: IC50 using the correlation amplitude gB): 3 nM
Structure (SMILES): C[C@]12CC[C@@H]3c4ccc(O)cc4CC[C@H]3[C@@H]1CC[C@@H]2O [estradiol, 17-β-estradiol]

Structure (SMILES): Cc1cc(O)c2c(c1)C(=O)c1cc(O)cc(O)c1C2=O [Emodin]
- IC50 (p60src kinase; dose-response curves, FIG. 12): 50 to 100 µM

- Activity on p60src kinase (in words) (p60src kinase; dose-response curves, FIG. 12): inactive
Structure (SMILES): O=CN/C=C/c1cc(O)ccc1O [Erbstatin]
